From patent publication US12383628B2 (priority 2016, dated 2025) come the findings set out here.

For one data set, the target named is MOR (Homo sapiens, UniProt P35372). Put plainly: Binding tests (Ki) MOR.
The next data set has as its target DOR (Homo sapiens, UniProt P41143). Put plainly: Binding tests (Ki) DOR.
Another data set has as its target KOR (Homo sapiens, UniProt P41145). Put plainly: Binding tests (Ki) KOR.
A short description of data set [1]: Stability and degradability of biogels in human plasma (Example 8). In kind it is in vitro ADME. The settings on record: human plasma, 37° C.; for half-life at 14 μM: human, in solution. As to the method: After centrifugation at 14 000 rpm for 15 minutes, 100 μL supernatant was diluted with 100 μL milliQ water in the injection vial. Injection samples were vortexed for 5 seconds and were analyzed by HPLC. […] Calculations were performed using Microsoft® Office Professional 2010 Excel.

Data set [2] is described as follows: TEM / cryo-TEM fibre morphology of hydrogels. It is filed as physicochemical. The settings on record: cryoTEM and negative staining, Example 9. As to the method:
Formvar carbon-coated 400-mesh copper grids (Agar Scientific, Stansted, United Kingdom) were treated with plasma using an ELMO Glow discharge system to clean the grid surface and to render the carbon surface hydrophilic. Hydrogel samples were prepared 12 h in advance as described above. Small aliquots of sample (5 μL) were pipetted onto the carbon grids for adsorption. After 30 s, excess of sample was removed by using a Whatman 541 filter paper. The loaded grids were stained during 10 s with 1% uranyl formate after which the grids were air-dried. Samples were analysed using a JEOL JEM-1400 transmission electron microscope, operating at accelerating voltage of 120 kV. Images were recorded on a CMOS TemCam-F416 camera and accessory software of TVIPS.
200-mesh copper grids coated with perforated carbon film (Lacey carbon film: ProSci-Tech Old, Australia) were used and were glow discharged in nitrogen for 5 s immediately prior to use. Hydrogel samples were prepared 12 h in advance as described above. Small aliquots of sample (4 μL) were pipetted onto the carbon grids for adsorption. After 30 s, excess of sample was removed by using a Whatman 541 filter paper. The grid was then plunged into liquid ethane cooled by liquid nitrogen. Frozen grids were stored in liquid nitrogen until required. Samples were analysed using a Gatan 626 cryoholder and Tecnai 12 Transmission electron microscope, operating at accelerating voltage of 120 kV. Images were recorded using an FEI Eagle 4k×4k CCD camera.

For the next data set, the system named is L929 mouse fibroblasts. Description: Cytotoxicity, Live/Dead viability staining on hydrogels (Example 9). It is filed as cell-based. As to the method:
Hydrogels were prepared at 1, 2 or 3 mg/100 μL as duplicate in a 96-well ULA plate (Cat #CORN3474; Corning-Costar, 60 μL each well). The gels were photographed and pre-equilibrated before seeding with cells. For equilibration, gels were incubated at room temperature in 40 μL of L929 culture medium with double-strength Anti-Anti (Cat #15240062, GIBCO) for 2 h prior to seeding with cells. The equilibration medium was removed before cell seeding and retained to examine if the gels dissolved (even partially) or disintegrated into the culture medium. Next, […] mouse fibroblasts (ATCC) were seeded onto hydrogels at a concentration of 200,000 cells/ml in a volume of 50 μl. The cells were photographed immediately after seeding, observed by microscopy 2 h post-seeding and then observed and photographed at 24 h post-seeding. The cell culture medium consisted of MEM+GlutaMAX I (Cat #41090-036; GIBCO); 10% foetal bovine serum (Cat #12003C; SAFC, Sigma), 2× Anti-Anti (Cat #[…]) and 1× Non-Essential Amino Acids (Cat #41090-036; GIBCO).
Bright field microscopy was performed through use of a IX71 inverted microscope with NIS-Elements F3.0 imaging software (Olympus). The TE2000 Eclipse fluorescent microscope with NIS-Elements AR3.2 software (Nikon) was used for fluorescence imaging microscopy. Automated cell counting was performed on the NC-200 NucleoCounter using proprietary lysis and stabilising reagents and cassettes (ChemoMetec).
The viability and distribution of cells was assessed using a LIVE/DEAD Viability/Cytotoxicity Kit *for Mammalian cells* (Live-Dead Kit), (Cat #13224; Molecular Probes). Briefly, a working solution of live/dead solution was made as per manufacturer's instructions by adding 1.25 μl of Calcein AM (solution A) to 2.5 ml of pre-warmed PBS. The solution was thoroughly mixed by vortex and 2.5 μl of Ethidium homodimer (solution B), was added before vortexing a second time to mix. Excess medium was removed and the gels rinsed with 20 μl of warm PBS before a 40 μl of Live/Dead kit working solution was added to each well. The plate was incubated in a 37° C. cell culture incubator for 20 min before viewing using a fluorescent microscope. Green fluorescence was emitted from the cytoplasm of viable cells (excitation/emission ˜495 nm/˜515 nm) while dead cell nuclei fluoresced red (excitation/emission ˜495/˜635 nm) allowing a distinction to be made between viable and dead cells.

Data set [3] in a line: in vitro. As to conditions: human, plasma.
Experimental: Human plasma was obtained from the Belgian Red Cross (Vlaams-Brabant, Leuven). Prior to the stability test, selectivity, stability of the compound in the injection solvent, linearity, accuracy and precision of the method were investigated. Frozen (−20° C.) human plasma samples were thawed and thermostated to 37±2° C. Dissolution of the lyophilized peptide and consecutive dilutions were performed in water. The resulting aqueous solutions of each peptide individually was spiked in human plasma (10:90 v/v) with final plasma concentrations of 9 μM.
On every time point 100 μL spiked plasma was transferred to a 500 μL Eppendorf tube and a protein crash was performed using the corresponding precipitation solvent (4° C.). Suspensions were vortexed for 15 s and placed at 4° C. for 30 to 45 min. After centrifugation at 18 625 g for 20 min, 100 μL supernatant was diluted with 100 μL water in the injection vial.
Injection samples were vortexed for 5 sand placed in the autosampler. […] Concentrations were calculated by use of the calibration curve and transferred to a semi-log chart presenting the log concentrations as a function of time. The optimum curve was used to calculate the peptide half-life. Calculations were performed using Microsoft® Office Professional 2010 Excel.
Data set [4] in a line: Peptide gelation (tilted tube / inverted vial test, minimum gelation concentration). In kind it is physicochemical. The settings on record: for Minimum gelation concentration (w/v % in PBS): '/' = no gel. As to the method: The peptide gelation occurred by dissolving the TFA salt of the hexapeptide (2 mg) in 100 μL of PBS solution (pH 7.4) or physiological saline solution (0.9% NaCl).
Both peptides 2 and 4 (Table 1) gave a transparent gel in the same conditions (PBS 10 mM at pH 7.4 with a minimum gelation concentration of 24 mM; 2% w/v). To evaluate the mechanical properties of these hydrogels in a more quantitative manner, rheological experiments were performed. The viscoelastic properties of the peptide hydrogels were measured by dynamic rheometry at 37° C. This technique allowed to measure the storage modulus G′ (corresponding to the material's stiffness or rigidity), loss modulus G″ (corresponding to the viscous properties of the material) and loss factor tan (o) (ratio of G″ over G′). According to the Winter-Chambon criterion, a material reaches gelation in rheological terms if the phase angle o gets frequency-independent (F. Chambon et al., 1987 and H. Winter et al., 1987).
The peptide gelation occurred by dissolving the TFA salt of the peptide in 100 μL of PBS solution or physiological saline solution (0.9% NaCl) (pH 7.4).
The peptide gelation occurs by dissolving the TFA salt of the hydrogelator (1 or 2 mg) in 100 μL of aqueous media, PBS solution (pH 7.4) or physiological saline solution (0.9% NaCl). After successive vortexing and sonication, the gel is left to rest overnight at room temperature.
The hydrogelation was realized under physiologically relevant conditions, namely via the addition of phosphate-buffered saline (PBS) or sterile physiological saline solution (0.9% NaCl). The needed amount of hydrogelator was weighed in an Eppendorf® and solubilized by the addition of the above solutions. After vortex and sonication steps, the resulting solution was left at room temperature until gelation occurred. The gelation was qualitatively verified by the inverted vial test (if no gravitational flow was visible the gelation was considered successful). It can be noticed that all peptide hydrogelators depicted formed gels in PBS and saline solution at a concentration of 1 to 2% w/v.

The nature of the next data set: pH of the hydrogel. It is filed as physicochemical. As to conditions: listed as MBG-1.
Data set [5] is described as follows: in vitro. The settings on record: human, plasma, 37° C., in solution.
Experimental: Human plasma was obtained from the Belgian Red Cross (Vlaams-Brabant, Leuven). […] Frozen (−20° C.) human plasma samples were thawed and thermostated to 37+2° C. Dissolution of the lyophilized peptide and consecutive dilutions were performed in water. […] On every time point 100 μL spiked plasma was transferred to a 500 μL Eppendorf tube and a protein crash was performed using 300 μL methanol+0.1% TFA (4° C.). Suspensions were vortexed for 15 seconds and placed at 4° C. for 30 to 45 minutes. After centrifugation at 14000 rpm for 20 minutes, 100 μL supernatant was diluted with 100 μL water in the injection vial. Injection samples were vortexed for 5 seconds and placed in the autosampler. […] Concentrations were calculated by use of the calibration curve and transferred to a semi-log chart presenting the log concentrations as a function of time. The optimum curve was used to calculate the peptide-half life. Calculations were performed using Microsoft® Office Professional 2010 Excel.
Data set [6] in a line: Dynamic rheometry of hydrogels (storage modulus G′). It is filed as physicochemical.
Experimental: Dynamic rheometry measurements were performed on an AR-G2 rheometer (TA Instruments) equipped with electrically heated plates and a 10 mm-diameter aluminium parallel plate-plate geometry. Viscoelastic properties were measured by oscillatory frequency sweeps at 37° C. in the range between 0.01 and 10 Hz, using a controlled strain of 0.05%. Hydrogel samples were made 12 h in advance. A ring-shaped reservoir filled with a saturated NH4Cl solution was used as a solvent trap.

“And” between values parts separate entries of the source, which are not always exact repeats. Equal entries are not always repeated. Square brackets hold non-standard residues; d marks the D form. Ends that are not written are not given here. Peptide text beside a SMILES is read from it. Phe(3-Br) = N[C@@H](Cc1cccc(Br)c1)C(=O)O; Dmt = Cc1cc(O)cc(C)c1C[C@H](N)C(=O)O; β3hF = N[C@H](CC(=O)O)Cc1ccccc1 Where only a bound is given, the exact number is not on record here.

MOR, sequence (P35372 whole entry): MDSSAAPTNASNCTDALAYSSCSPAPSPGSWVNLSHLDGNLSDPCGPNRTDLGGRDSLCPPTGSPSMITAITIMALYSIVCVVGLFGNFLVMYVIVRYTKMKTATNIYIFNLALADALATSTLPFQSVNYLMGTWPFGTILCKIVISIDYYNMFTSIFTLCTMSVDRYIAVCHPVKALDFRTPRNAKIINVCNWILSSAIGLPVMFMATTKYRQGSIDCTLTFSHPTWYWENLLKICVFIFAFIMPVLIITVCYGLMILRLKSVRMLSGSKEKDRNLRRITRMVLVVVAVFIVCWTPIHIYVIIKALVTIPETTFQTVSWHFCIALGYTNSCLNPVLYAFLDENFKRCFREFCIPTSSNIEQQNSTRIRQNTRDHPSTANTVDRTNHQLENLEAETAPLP
DOR, sequence (P41143 whole entry): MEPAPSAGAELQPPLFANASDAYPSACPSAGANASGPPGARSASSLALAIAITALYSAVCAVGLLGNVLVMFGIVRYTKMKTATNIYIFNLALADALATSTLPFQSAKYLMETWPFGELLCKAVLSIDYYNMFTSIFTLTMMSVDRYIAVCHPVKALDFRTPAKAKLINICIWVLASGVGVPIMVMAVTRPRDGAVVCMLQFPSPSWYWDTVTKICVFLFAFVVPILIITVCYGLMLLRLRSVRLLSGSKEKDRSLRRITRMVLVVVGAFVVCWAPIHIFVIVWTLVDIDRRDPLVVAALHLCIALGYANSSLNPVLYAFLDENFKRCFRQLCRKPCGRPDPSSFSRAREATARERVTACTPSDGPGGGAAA
KOR, sequence (P41145 whole entry): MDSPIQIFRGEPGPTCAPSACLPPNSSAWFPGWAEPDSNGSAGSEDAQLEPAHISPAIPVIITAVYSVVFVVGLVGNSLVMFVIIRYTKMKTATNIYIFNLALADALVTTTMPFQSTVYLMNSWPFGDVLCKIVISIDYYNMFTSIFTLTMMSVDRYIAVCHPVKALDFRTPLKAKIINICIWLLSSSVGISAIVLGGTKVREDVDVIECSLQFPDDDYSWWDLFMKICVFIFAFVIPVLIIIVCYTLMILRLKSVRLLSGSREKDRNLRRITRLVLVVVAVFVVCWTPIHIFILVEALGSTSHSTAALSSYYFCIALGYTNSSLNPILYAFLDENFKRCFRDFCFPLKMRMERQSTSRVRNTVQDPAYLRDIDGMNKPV

Turning to `Cc1cc(O)cc(C)c1C[C@H](N)C(=O)N[C@H](CCCCN)C(=O)N[C@@H](Cc1ccccc1)C(=O)N[C@@H](Cc1ccccc1)C(=O)N[C@@H](CCC(=O)O)C(=O)N[C@@H](Cc1ccccc1)C(=O)N[C@@H](CCC(N)=O)C(=O)N[C@@H](Cc1ccccc1)C(=O)N[C@@H](CCCCN)C(N)=O` [CM-53, Dmt-DLys-Phe-Phe-Glu-Phe*-Gln-Phe-Lys-NH2] (H-[Dmt][dK]FFEFQFK-NH2; N-terminus assumed), the affinity on MOR, expressed as Ki, was 7.4 nM. In addition, at DOR, the Ki (as a rule, the equilibrium dissociation constant of an inhibitor or competing ligand from its target) stood at 24 nM. At KOR, this molecule returned a Ki of 337 nM. For the same molecule, in data set [1], the “Time at which degradation of the heptapeptide into the N-terminal pentapeptide started” value is 7.5 min; the “Time at which degradation of the pentapeptide into tripeptide was observed” value is recorded as 60 min; the “Time of appearance of the heptapeptide (loss of Phe-Lys-NH2)” value is reported as 2.5 min; the half-life (as a rule, the time in which the quantity being followed falls by half) at 14 μM was roughly 18 min.
Consider `Cc1cc(O)cc(C)c1C[C@H](N)C(=O)N1CCC[C@H]1C(=O)N[C@@H](Cc1ccccc1)C(=O)N[C@@H](Cc1ccccc1)C(=O)N[C@@H](CCC(=O)O)C(=O)N[C@@H](Cc1ccccc1)C(=O)N[C@@H](CCC(N)=O)C(=O)N[C@@H](Cc1ccccc1)C(=O)N[C@@H](CCCCN)C(N)=O` [CM-54, Dmt-Pro-Phe-Phe-Glu-Phe*-Gln-Phe-Lys-NH2], for which, at MOR, the affinity, expressed as Ki, was 135 nM.
`Cc1cc(O)cc(C)c1C[C@H](N)C(=O)N1CCC[C@H]1C(=O)N[C@@H](Cc1ccccc1)C(=O)N[C@@H](Cc1ccccc1)C(=O)N[C@@H](CCC(N)=O)C(=O)N[C@@H](Cc1ccccc1)C(=O)N[C@@H](CCC(N)=O)C(=O)N[C@@H](Cc1ccccc1)C(=O)N[C@@H](CCCCN)C(N)=O` [CM-56, Dmt-Pro-Phe-Phe-Gln-Phe*-Gln-Phe-Lys-NH2] (H-[Dmt]PFFQFQFK-NH2; N-terminus assumed): the inhibitory constant (Ki) on MOR stood at 65 nM; on DOR it was 176 nM; on KOR it was 337 nM.
With `Cc1cc(O)cc(C)c1C[C@H](N)C(=O)N1CCC[C@H]1C(=O)N[C@@H](Cc1c[nH]c2ccccc12)C(=O)N[C@@H](Cc1ccccc1)C(=O)N[C@@H](CCC(N)=O)C(=O)N[C@@H](Cc1ccccc1)C(=O)N[C@@H](CCC(N)=O)C(=O)N[C@@H](Cc1ccccc1)C(=O)N[C@@H](CCCCN)C(N)=O` [CM-58, Dmt-Pro-Trp-Phe-Gln-Phe*-Gln-Phe-Lys-NH2] (H-[Dmt]PWFQFQFK-NH2; N-terminus assumed), the Ki came to 7.5 nM on MOR, 15 nM on DOR and 120 nM at KOR. Further, the half-life at 14 μM in data set [1] was roughly 12 min.
In data set [2], `NCCCC[C@H](NC(=O)[C@H](Cc1ccccc1)NC(=O)[C@H](CCC(N)=O)NC(=O)[C@H](Cc1ccccc1)NC(=O)C[C@H](Cc1ccccc1)NC(=O)[C@H](CCC(=O)O)NC(=O)[C@@H](N)Cc1ccccc1)C(N)=O` [peptide 27, H-Phe-Glu-13;;-homo-Phe-Phe-Gln-Phe-Lys-NH2] (H-FE[β3hF]FQFK-NH2) gave a Fibre diameter of roughly 5 nm. Besides, the Cytotoxicity in vitro entry with L929 mouse fibroblasts is recorded as “showed no cytotoxicity in vitro”. The same molecule showed a half-life at 9 μM in the data set “in vitro [3]” of roughly 25 min.
Regarding “FEFQFK [peptide 1, H-Phe-Glu-Phe*-Gln-Phe-Lys-OH]”, the Minimum gelation concentration in data set [4] (in mQ:PBS 50:50) is listed as 1 (in mQ:PBS w/v %. Further, the “pH of the gel” value in “pH of the hydrogel” was < 4 and 3.49. This molecule also gave a half-life at 72 μM in “in vitro [5]” of roughly 2 min.
On to “FQFQFK-NH2 [peptide 16, H-Phe-Gln-Phe*-Gln-Phe-Lys-NH2]”, for which, in data set [4] (PBS or saline solution, Example 9), the “Minimum gelation concentration (MGC)” value is 1 % w/v. Further, in [4], the “Minimum gelation concentration (w/v % in PBS)” value worked out at 2 w/v %. For the same molecule, the Fibre diameter in data set [2] was roughly 5 nm. Further, the Cytotoxicity in vitro entry with L929 mouse fibroblasts was “showed no cytotoxicity in vitro”. In the data set “in vitro [3]”, this molecule registered a half-life at 9 μM of roughly 3 min.
Turning to “H-Phe(3Br)-Gln-Phe(3Br)-Gln-Phe(3Br)-Lys-NH2 (H-[Phe(3-Br)]Q[Phe(3-Br)]Q[Phe(3-Br)]K-NH2) [peptide 33]”, the “Minimum gelation concentration (w/v % in PBS)” value in data set [4] was 1-2 w/v %. The “Gel strength compared to the non-halogenated peptide” value in data set [6] was “stronger gels”.
As for “KFQFEF-NH2 [peptide 18, H-Lys-Phe-Gln-Phe*-Glu-Phe-NH2]”, the “Minimum gelation concentration (w/v % in PBS)” value in [4] worked out at 2 w/v %. The Fibre diameter in [2] was roughly 5 nm. In addition, the Cytotoxicity in vitro result with L929 mouse fibroblasts is “showed no cytotoxicity in vitro”. The half-life at 9 μM in “in vitro [3]” was roughly 5 min.
Regarding “WEWQWK-NH2 [peptide 12, H-Trp-Glu-Trp*-Gln-Trp-Lys-NH2]”, in [4], the “Minimum gelation concentration (w/v % in PBS)” value came out at 1 w/v %. Further, the Fibre diameter in [2] is listed as roughly 5 nm. Moreover, in the data set on L929 mouse fibroblasts, the Cytotoxicity in vitro entry was “showed no cytotoxicity in vitro”. In “in vitro [3]”, this molecule returned a half-life at 9 μM of roughly 21 min.
